Experimental data as given in US20240301408A1, “MICRORNA 195 COMPOSITIONS AND METHODS FOR TREATING COGNITIVE IMPAIRMENT” (UNITED STATES GOVERNMENT AS REPRESENTED BY THE DEPARTMENT …, priority 2021, published 2024).

Columns and labels:
dynamin 1 (dyn1) = test: dynamin 1 protein levels in cultured neurons after AAV2 miRNA over-expression; type: cell-based, mouse; conditions: neurons over-expressing miRNA; N=4/group
Protocol: Mouse Neuronal and human iPSC culture. Primary cortical neurons were cultured (Zhu L et al., Proc Natl Acad Sci USA 2015, and Zhu L et al., J Biol Chem 2013) before being fixed and stained for confocal microscopy analysis (Zeiss LSM) (Berg I et al., Nat Protoc 2010). In some conditions, bovine serum albumin (BSA) or receptor-associated protein (RAP) was included in the cultured media (N=3/group). Alternatively, cultured neurons were transfected with adeno-associated virus 2 (AAV2)-containing miR-195-5p or miR-374 or scramble controls for 5 days before subjected to analysis. […]
(§1) Brain and neuronal sample preparation and biochemical analysis. […] Levels of Aβ42, Aβ40, pTau, Tau and ApoE were determined using high-sensitive ELISA kits. […]
(§2) Statistical analysis. […] Levels of miR-195-5p and miR-374 were normalized to U6 and RNU6B (internal controls) while synj1 mRNA normalized to GAPDH and 18s, and then expressed as Log2fold of changes when compared to controls. Levels of synj1, dyn1, pTau, Tau, and holoAPP were normalized to β-actin levels and expressed as a percentage of the control. Absolute Aβ42, Aβ40, pTau, Tau, and ApoE concentrations were quantitatively determined by ELISA and expressed as a percentage of the control. […] Pearson correlation coefficients were calculated to determine the linear relationship between the two variables. […]

pTau, total Tau = test: brain pTau and total Tau in EFAD mice after miR-195-5p over-expression; type: in vivo; conditions: ApoE4+/+ FAD mouse hippocampus
Protocol: Stereotaxic injection and behavior studies. Eight to nine weeks old male and female ApoE3^+/+ and ApoE4^+/+ KI mice without 5×FAD background (N=19-23/group), or with 5×FAD background (N=15-17/group) were placed in the stereotaxic apparatus with AAV2 or scramble virus administered into the dorsal CA1 regions of bilateral hippocampal brain regions using pressure injection (Labonte B et al., Nat Med 2017, and Passini M A et al., The Journal of neuroscience 2006). Injection volumes (0.5-2.0 μl) were delivered over 10 min to avoid tissue damage. […]
as §1, §2

[1] = system: lysosomes of ApoE4+/+ astrocytes; test: lysosome size (Lysotracker, confocal) in iPSC-derived astrocytes; type: cell-based, human; conditions: control 36.5 μm^2
Protocol: Mouse Neuronal and human iPSC culture. Primary cortical neurons were cultured (Zhu L et al., Proc Natl Acad Sci USA 2015, and Zhu L et al., J Biol Chem 2013) before being fixed and stained for confocal microscopy analysis (Zeiss LSM) (Berg I et al., Nat Protoc 2010). In some conditions, bovine serum albumin (BSA) or receptor-associated protein (RAP) was included in the cultured media (N=3/group). Alternatively, cultured neurons were transfected with adeno-associated virus 2 (AAV2)-containing miR-195-5p or miR-374 or scramble controls for 5 days before subjected to analysis. The ApoE4^+/+ and ApoE3^+/+ iPSCs were differentiated into neural progenitor cells (NPCs) by dual SMAD inhibition followed by neural rosette selection and forebrain-specific patterning by 20 ng/ml FGF2 exposure (Bowles K R et al., PloS one 2019, and Tcw J et al., Stem cell reports 2017). These NPCs were purified by MACS for CD271^−/CD133^+ (Bowles K R et al., PloS one 2019) and differentiated to cortical neurons (Bardy C et al., Proc Natl Acad Sci USA 2015, and Paquet D et al., Nature 2016) and a homogeneous population of astrocytes (Tcw J et al., Stem cell reports 2017, and Shaltouki A et al., Stem Cells 2013) before subjected to viral transfection and confocal microscopy analysis. […]

UAGCAGCACAGAAAUAUUGGC (chemistry not given here) [miR-195-5p, over-expressed via AAV2-containing miR-195-5p from ABM Inc]
dyn protein levels (dynamin 1 (dyn1)): 97.7 % of controls | p-Tau (pTau, total Tau): reduction | average size of lysosomes (area) [1]: no significant differences
